# Test system: Abeta1-x production in H4 neuroglioma cell line stably expressing human APP
# Experiment: H4-APPwt Cell-Based Assay (Assay 2), production of Abeta1-x peptides
# Details: Table 1; H4 cells expressing human APP, Abeta1-x by AlphaLISA, 18 h
# Experimental: Cellular potency of the compounds was assessed in an assay monitoring production of Abeta1-x peptides in the H4 neuroglioma cell line (ATCC, Cat. #HTB-148) stably expressing human APP. Tested compounds were dissolved in DMSO and pre-diluted in the culture medium (DMEM containing 10% FBS and 1% penicillin/streptomycin) to achieve twice the final concentration of the compounds in the assay. Equal volumes of the 2× solutions of the tested compounds and cell suspension were added to a 96-well culture plate, so that each well contained ˜10,000 cells in a final volume of 200 μl. Final concentration of DMSO in the assay was 0.2%. The plates were incubated for 5 h at 37° C., 5% CO2 to allow cells to attach to the bottom of the wells in the presence of the tested compounds. The media was removed and replaced with fresh media containing tested compounds at the same final concentration. The plates were incubated for 18 h at 37° C., 5% CO2. Concentrations of Ab1-x were determined using AlphaLISA immunoassay (PerkinElmer, Cat. # AL288) following the manufacturer's protocol. Concentrations of Abeta1-x in the wells containing either DMSO or 10 μM beta-secretase inhibitor (BACE inhibitor IV, EMD Bioscience, Cat. #565788) were used as uninhibited and background controls, respectively, for calculating percent inhibition values for each well with the tested compounds.
row,Structure (SMILES),IC50
1,CO[C@H]1[C@H](C)C[C@@]2(Cc3ccc(Br)cc3[C@@]23N=C(C)C(N)=N3)C[C@@H]1C [Example 1],4.5 nM
2,CO[C@H]1[C@H](C)C[C@@]2(Cc3ccc(C#N)cc3[C@@]23N=C(C)C(N)=N3)C[C@@H]1C [Example 2],4 nM
3,CC1=N[C@]2(N=C1N)c1cc(C#N)ccc1C[C@@]21C[C@@H](C)[C@H](O)[C@@H](C)C1 [Example 3],34 nM
4,CO[C@H]1CC[C@@]2(Cc3ccc(Br)cc3C23N=C(C)C(N)=N3)C[C@@H]1C (stereo partly shown) [Example 4],6.2 nM

# The remaining lines, values ahead:
row,IC50,Structure (SMILES)
1,2 nM,CO[C@H]1CC[C@@]2(Cc3ccc(C#N)cc3[C@@]23N=C(C)C(N)=N3)C[C@@H]1C [Example 5]
2,0.6 nM,CO[C@H]1[C@H](C)C[C@@]2(Cc3ccc(-c4cncc(F)c4)cc3[C@@]23N=C(C)C(N)=N3)C[C@@H]1C [Example 6]
3,4 nM,CC#Cc1cncc(-c2ccc3c(c2)[C@@]2(N=C(C)C(N)=N2)[C@@]2(C3)C[C@@H](C)[C@H](OC)[C@@H](C)C2)c1 [Example 7]

# Target: truncated human beta-secretase, BACE1 (amino acids 1-454) (Homo sapiens (Human), UniProt P56817)
# Sequence (P56817 22-454): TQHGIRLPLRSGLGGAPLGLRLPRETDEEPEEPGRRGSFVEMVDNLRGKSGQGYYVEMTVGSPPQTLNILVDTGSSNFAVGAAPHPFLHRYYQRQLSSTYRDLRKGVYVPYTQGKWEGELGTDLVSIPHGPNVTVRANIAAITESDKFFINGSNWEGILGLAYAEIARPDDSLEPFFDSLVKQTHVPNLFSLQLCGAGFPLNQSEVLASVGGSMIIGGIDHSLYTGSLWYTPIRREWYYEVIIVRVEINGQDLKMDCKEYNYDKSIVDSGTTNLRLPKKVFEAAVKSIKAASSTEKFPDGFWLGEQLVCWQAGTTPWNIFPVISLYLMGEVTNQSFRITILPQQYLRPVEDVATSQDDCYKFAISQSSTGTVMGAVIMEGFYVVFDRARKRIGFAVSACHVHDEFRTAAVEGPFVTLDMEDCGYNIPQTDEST
# Experiment: BACE1 Assay (Assay 1), fluorescence quench assay
# Format: biochemical
# Details: Table 1; pH 4.4, 1 μM substrate peptide; read-out: BACE 1 IC50 nM (Assay 1)
# Experimental: The substrate was dissolved at 1 mg/ml in DMSO.
# The assay was performed in the presence of OptiMEM™ (supernatant collected over 24 h and cleared from cellular debris by centrifugation) containing the ectodomain of BACE1, 25 μl water containing the desired 2-fold concentration of test compound and 2% DMSO, 1 μM substrate peptide, 20 mM NaOAc, pH 4.4, and 0.04% Triton-X100 in a total assay volume of 50 μl in a 384 well plate. In general, 25 μl of compound dilution were added to the plate followed by the addition of 10 μl of BACE1 containing OptiMEM™ diluted 1:10 in water with 0.2% Triton X-100. The reaction was started with the addition of 15 μl substrate in NaOAc buffer. The reaction was incubated at rt (dark) in an Envision® multilabel reader (Perkin Elmer) and the cleavage of the substrate was recorded as kinetic for 60 min at ex: 485 nm, em: 538 nm. Blank wells containing no enzyme were included on each plate.
# The intensity of fluorescence was regressed against time in order to derive velocities of reaction in all 384 wells. These velocities were used for calculating percent control using an uninhibited control containing 1% DMSO as 100% and a blank control performed in the absence of enzyme as 0%. IC50 values were calculated by fitting percent control vs. test compound concentration using Assay Explorer®.
row,Structure (SMILES),IC50
1,CO[C@H]1[C@H](C)C[C@@]2(Cc3ccc(Br)cc3[C@@]23N=C(C)C(N)=N3)C[C@@H]1C [Example 1],4 nM
2,CO[C@H]1[C@H](C)C[C@@]2(Cc3ccc(C#N)cc3[C@@]23N=C(C)C(N)=N3)C[C@@H]1C [Example 2],3.5 nM
3,CC1=N[C@]2(N=C1N)c1cc(C#N)ccc1C[C@@]21C[C@@H](C)[C@H](O)[C@@H](C)C1 [Example 3],37 nM

# Next, values leading:
row,IC50,Structure (SMILES)
1,1.5 nM,CO[C@H]1CC[C@@]2(Cc3ccc(C#N)cc3[C@@]23N=C(C)C(N)=N3)C[C@@H]1C [Example 5]
2,1.5 nM,CO[C@H]1[C@H](C)C[C@@]2(Cc3ccc(-c4cncc(F)c4)cc3[C@@]23N=C(C)C(N)=N3)C[C@@H]1C [Example 6]
3,8.2 nM,CC#Cc1cncc(-c2ccc3c(c2)[C@@]2(N=C(C)C(N)=N2)[C@@]2(C3)C[C@@H](C)[C@H](OC)[C@@H](C)C2)c1 [Example 7]

# Reference: patent US9290477B2, “Inhibitors of β-secretase” (Vitae Pharmaceuticals, Inc., priority 2012, dated 2016)
